Bounds are passed on as bounds.

The term IC50 denotes the concentration that inhibits the measured activity by half.

Common to all, as to assay type: biochemical
Experiment [1] concerns the target T1, wild type HCV NS3/4A 1b protease enzyme (Hepatitis C virus genotype 1b, UniProt P26663).
T1 construct: 10× stocks of NS3/4A protease enzyme from Bioenza; purchased Bioenza (Mountain View, Calif.)
In words: HCV protease FRET assay, wild type NS3/4A 1b enzyme. From the text:
Method B: HCV Protease FRET Assay for Wild Type and Mutated NS3/4A 1b Enzymes (IC50)
A quantitative, fluorescence resonance energy transfer (FRET)-based methodology was employed to identify HCV NS3/4A protease inhibitors. The assay employed a synthetic FRET peptide, derived from the HCV NS5A/5B cleavage site, with the HCV protease to evaluate the activity of compounds against the protease by monitoring the cleavage activity of the complex. A synthetic peptide which encompasses the NS5A-5B junction (NH2-[…]-COOH) (SEQ ID NO: 78) was labeled with Dabcyl and Edans at N- and C-termini, respectively (Invitrogen, Carlsbad, Calif.). Fluorescence measurement was used to estimate the IC50 value of the test compound. […] Upon cleavage of the FRET peptide by HCV NS3/4A proteinase complex (100 ng/mL), the fluorescence is recovered and can be continuously monitored at excitation/emission=340/490 nm.
Assay buffer: 2% CHAPS, 50 mM Tris pH 7.5, 50% glycerol, 2 uM M-2235 (Bachem) substrate. In a 50 μl reaction, add 49 μl assay buffer, 1 μl (1 U) HCV serine protease (Bioenza). Incubate 20 minutes at room temperature. The plate was read at either 350/460 nm (excitation/emission) on a fluorescent micro-plate reader or monitored at one-minute intervals to achieve the kinetic curve.
(§1) HCV Protease FRET Assay for WT and Mutated NS3/4A 1b Enzymes (IC50 —APP)
The following protocol was used to generate “apparent” IC50 (IC50—APP)) values as depicted in Table 3, below. Without wishing to be bound by any particular theory, it is believed that IC50—APP, contrasted with IC50 values, may provide a more useful indication of time-dependent inhibition, and are thus more representative of binding affinity. […] Protease reactions were immediately started after enzyme addition with the addition of 45 μL of the FRET substrate and monitored for 60-90 minutes at λex485/λem520 in a Synergy^4 plate reader from BioTek (Winooski, Vt.). […]

The target of experiment [2] is T2, A156S mutant of the HCV NS3/4A 1b protease enzyme (Hepatitis C virus genotype 1b, UniProt P26663, A1182S).
T2 construct: 10× stocks of NS3/4A protease enzyme from Bioenza; purchased Bioenza (Mountain View, Calif.)
In words: HCV protease FRET assay, A156S mutant. To be noted: read-out: Inhibition, HCV A156S (IC50). As for the experimental part: (§2) HCV Protease FRET Assay for Mutated NS3/4A 1b Enzymes
(§3) The protocol is a modified FRET-based assay (v—02) from In Vitro Resistance Studies of HCV Serine Protease Inhibitors, 2004, JBC, vol. 279, No. 17, pp 17508-17514. Inherent potency of compounds was assessed against A156S, A156T, D168A, and D168V mutants of the HCV NS3/4A 1b protease enzyme as follows: […]
(§4) 10× stocks of NS3/4A protease enzyme from Bioenza (Mountain View, Calif.) and 1.13×5-FAM/QXL™520 FRET peptide substrate from Anaspec (San Jose, Calif.) were prepared in 50 mM HEPES, pH 7.8, 100 mM NaCl, 5 mM DTT and 20% glycerol. 5 μL of each enzyme were pre-incubated in a Corning (#3573) 384-well, black, non-treated microtiter plate (Corning, N.Y.) for 30 min at 25° C. with a 0.5 μL volume of 50% DMSO and serially diluted compounds prepared in 50% DMSO. Protease reactions were started with the addition of 45 μL of the FRET substrate and monitored for 120 minutes at λex487/λem514 through Quad^4 monochromoters in a Synergy^4 plate reader from BioTek (Winooski, Vt.). At the conclusion of each assay, progress curves from each well were examined for linear reaction kinetics and fit statistics (R^2, absolute sum of squares). Initial velocity (0 minutes to 30+ minutes) from each reaction was determined from the slope of a plot of relative fluorescence units vs time (minutes) and then plotted against inhibitor concentration to estimate IC50 from log[Inhibitor] vs Response, Variable Slope model in GraphPad Prism from GraphPad Software (San Diego, Calif.). […]
(§5) The compound numbers correspond to the compound numbers in Table 3. Compounds having an activity designated as “A” provided an IC50≦10 nM; compounds having an activity designated as “B” provided an IC50>10 nM and ≦100 nM; compounds having an activity designated as “C” provided an IC50>100 nM and ≦1000 nM; and compounds having an activity designated as “D” provided an IC50>1000 nM and <10,000 nM.

The target of experiment [3] is T3, D168A mutant of the HCV NS3/4A 1b protease enzyme (Hepatitis C virus genotype 1b, UniProt P26663, D1194A).
T3 construct: 10× stocks of NS3/4A protease enzyme from Bioenza; purchased Bioenza (Mountain View, Calif.)
Nature of the experiment: HCV protease FRET assay, D168A mutant. As to conditions: read-out: Inhibition, HCV D168A (IC50). As for the experimental part: as §2, §3, §4, §5

For experiment [4], the target named is T4, R155K mutant of the HCV NS3/4A 1b protease enzyme (Hepatitis C virus genotype 1b, UniProt P26663, R1181K).
T4 construct: 10× stocks of NS3/4A protease enzyme from Bioenza; purchased Bioenza (Mountain View, Calif.)
Nature of the experiment: HCV protease FRET assay, R155K mutant. To be noted: read-out: Inhibition, HCV R155K (IC50).
Excerpt: as §1
The following protocol was used to generate “apparent” IC50 (IC50—APP)) values as depicted in Table 3, below. Without wishing to be bound by any particular theory, it is believed that IC50—APP, contrasted with IC50 values, may provide a more useful indication of time-dependent inhibition, and are thus more representative of binding affinity. The protocol is a modified FRET-based assay (v—03) developed to evaluate compound potency, rank-order and resistance profiles against wild type and C159S, A156S, A156T, D168A, D168V, R155K mutants of the HCV NS3/4A 1b protease enzyme as follows: 10× stocks of NS3/4A protease enzyme from Bioenza (Mountain View, Calif.) and 1.13×5-FAM/QXL™520 FRET peptide substrate from Anaspec (San Jose, Calif.) were prepared in 50 mM Tris-HCl, pH 7.5, 5 mM DTT, 2% CHAPS and 20% glycerol. 5 μL of each enzyme were added to Corning (#3575) 384-well, black, microtiter plates (Corning, N.Y.) after spotting a 0.5 μL volume of 50% DMSO and serially diluted compounds prepared in 50% DMSO. Protease reactions were immediately started after enzyme addition with the addition of 45 μL of the FRET substrate and monitored for 60-90 minutes at λex485/λem520 in a Synergy^4 plate reader from BioTek (Winooski, Vt.). […]

Turning to `C=C[C@@H]1C[C@]1(NC(=O)[C@@H]1C[C@@H](Oc2cc(-c3ccccc3)nc3cc(OC)ccc23)CN1C(=O)C(NC(=O)OC(C)(C)C)[C@@H](C)OC(=O)/C=C/C)C(=O)NS(=O)(=O)C1CC1` (some centres unmarked) [Compound 3], the half-inhibitory concentration (IC50) is less than 10 nM in experiment [1], less than 10 nM in experiment [2] and 100 to 1000 nM in experiment [3].
With `C=CC(=O)N(C)C[C@H](NC(=O)OC(C)(C)C)C(=O)N1C[C@H](OC(=O)N2Cc3cccc(F)c3C2)C[C@H]1C(=O)N[C@]1(C(=O)NS(=O)(=O)C2CC2)C[C@H]1C=C` [Compound 4], the half-maximal inhibitory concentration (IC50) in experiment [1] is less than 10 nM; in experiment [2] it was less than 10 nM; in experiment [3] it was 10 to 100 nM; in experiment [4], 10 to 100 nM.
As for `CC(C)(C)OC(=O)NC1CN(C(=O)CCl)CCC/C=C\[C@@H]2C[C@@]2(C(=O)NS(=O)(=O)C2CC2)NC(=O)[C@@H]2C[C@@H](OC(=O)N3Cc4cccc(F)c4C3)CN2C1=O` (some centres unmarked) [Compound 8], the concentration for half-maximal inhibition (IC50) in experiment [1] is less than 10 nM; in experiment [2], less than 10 nM; in experiment [3] it was 10 to 100 nM; in experiment [4] it was 10 to 100 nM.
